According to patent US8486916B2, “Medicine, food and drink or feed containing sphingomyelin” (Megmilk Snow Brand Co., Ltd., priority 2005, dated 2013):
Read-outs that look alike come from different tables or passages of the source.

Columns and labels:
[1] = system: sialomucin content in the saliva; test: Effect of promoting sialomucin secretion: sialomucin content in rat saliva; type: in vivo, SD rats; details: 7th day of experimental diet containing 1% of the substance
Protocol: Seven-week-old male SD rats (manufactured by Charles River Laboratories, Japan, Inc) were raised under conditions involving humidity of 60%, room temperature of 24° C., and light-dark (12 hour/12 hour) control. All the rats were preliminarily raised for 1 week with a standard diet and then divided into 3 groups each containing 12 individuals. These groups were allowed to freely take their respective experimental diets and raised for 1 week. Rat saliva was collected on the 7th day after the administration of experimental diets. A sialomucin content in the saliva was measured by high-performance liquid chromatography. […] In this context, a sialomucin content in the saliva was measured by the following method: 0.2 ml of a Nembutal solution was intramuscularly injected to rats fasted for 2 hours or longer. After anesthesia, a solution of pilocarpine hydrochloride serving as a saliva secretion promoter was intramuscularly injected thereto. […] A sialomucin content in the sialomucin fraction was quantified with a Sialic Acid Fluorescence Labeling Kit (Takara Bio Inc.). […] Free N-acetyl sialic acid or O-acetylated sialic acid was reacted at 55° C. for 2.5 hours by the addition of a DMB reagent as a fluorescence labeling agent and then quantified by high-performance liquid chromatography.

cholera toxin = details: in vivo
[2] = system: erythrocyte membrane ghost; test: Antioxidative activity: erythrocyte membrane ghost oxidation (TBA reaction); type: biochemical, rabbit
Protocol: The antioxidative activity of sphingomyelin was measured according to the method of Osawa et al. (J. Agric. Food Chem., vol. 35, pp. 809-812, 1987). Specifically, preserved rabbit blood was mixed with an equal amount of an isotonic solution (10 mM phosphate buffer/152 mM sodium chloride, pH 7.4), followed by centrifugation at 1,500×g (3,500 rpm) at 4° C. for 20 minutes. Blood corpuscles washed by repeating this procedure three times were mixed with an equal amount of a hypotonic solution (10 mM phosphate buffer, pH 7.4), followed by centrifugation at 20,000×g (11,000 rpm) at 4° C. for 40 minutes. Then, loose pellets (erythrocyte membrane ghost) obtained by repeating this procedure four times were used to examine antioxidative activity. […] An oxidation reaction was performed by the addition of an oxidizing agent. Subsequently, a TBA reaction was performed. Then, absorbance at 532 nm was measured to quantify an oxidation product.

[3] = system: enteropathogenic E. coli O-157; test: Test I on prevention of enteropathogenic E. coli O-157 infection; type: in vivo; details: BALB/c germ-free mice, 5 mg/day oral
Protocol: Test I on prevention of enteropathogenic E. coli O-157 infection
The intake of sphingomyelin was 5 mg/day. On the 3rd day from the start of taking, the mice were infected with enteropathogenic E. coli O-157 by oral administration at a dose of 8.5×10^6 cfu/mouse. After infection, the mice were also allowed to orally take sphingomyelin on a daily basis. […] The survival rate of the […] depending on the number of days after the administration of enteropathogenic E. coli O-157 is shown in Table 7. As is evident from the results of Table 7, the survival rate of the germ-free mice was enhanced by the administration of sphingomyelin.

[4] = system: enteropathogenic E. coli O-157; test: Test II on prevention of enteropathogenic E. coli O-157 infection; type: in vivo; details: mice, 8th day after administration of E. coli
Protocol: Sphingomyelin was tested for its effect of preventing enteropathogenic E. coli O-157 infection according to the method described in “Test Example 2” of Japanese Patent Laid-Open No. 2001-2704.
Test II on prevention of enteropathogenic E. coli O-157 infection
The survival rate of mice on the 8th day after the administration of E. coli was measured in the same way as in Test Example 10 except that the intake of sphingomyelin was changed to 0.1 to 10 mg/day.

EAE rats = test: Effect of sphingomyelin on EAE rats; type: in vivo, Lewis rats; details: for Cumulative score of symptoms: six-grade score 0-5
Protocol: A therapeutic effect on EAE rats serving as models of multiple sclerosis, one of demyelinating diseases, will be shown. The hind footpad of Lewis rats (female, 6 week old) in groups each containing 5 individuals was immunized with a mixture of syngeneic rat brain homogenates with an equal amount of a complete Freund adjuvant (manufactured by Difco) as an antigen for inducing EAE at a dose of 80 mg in terms of the amount of the brain homogenates. Sphingomyelin was intraperitoneally administered at a dose shown in Table 9 for 18 days from the immunization day. The measurement of body weights and the observation of EAE symptoms were performed every day. […] The therapeutic effect was assessed based on the cumulative score of the symptoms in each group. […] Only a saline was administered to the control group.

enteropathogenic E. coli = details: SD rats
[5] = 1 mg/kg intraperitoneal for 18 days
[6] = 2 mg/kg intraperitoneal for 18 days

Q: Which Sialomucin content [1] does the source give for sphingomyelin here?
A: 25.2 ± 2.9 µg/µL

Q: What about the Inhibition rate (cholera toxin) of the same substance?
A: 38.9 ± 3.8%

Q: What about the “absorbance at 532 nm (oxidation product) with respect to absence of added sphingomyelin defined as 100%” value (“absorbance at 532 nm … as 100%” below) ([2]; sample concentration 0.01 mM, lower = higher antioxidative activity) of the same substance?
A: 98%

Q: And the “absorbance at 532 nm … as 100%” value ([2]; sample concentration 0.1 mM)?
A: 95%

Q: What about the “absorbance at 532 nm … as 100%” value ([2]; sample concentration 1 mM) of the same substance?
A: 80%

Q: What about the “absorbance at 532 nm … as 100%” value ([2]; sample concentration 10 mM) of the same substance?
A: 61%

Q: What about the Survival rate ([3]; 0 days after administration of E. coli) of the same substance?
A: 100%

Q: And the Survival rate ([3]; 2 days after administration of E. coli)?
A: 100%

Q: What about the Survival rate ([3]; 4 days after administration of E. coli) of the same substance?
A: 100%

Q: And the Survival rate ([3]; 6 days after administration of E. coli)?
A: 80%

Q: And the Survival rate ([3]; 8 days after administration of E. coli)?
A: 70%

Q: What about the Survival rate ([4]; intake 0.1 mg/day, control 35) of the same substance?
A: 35%

Q: What about the Survival rate ([4]; intake 1.0 mg/day) of the same substance?
A: 65%

Q: What about the Survival rate ([4]; intake 5.0 mg/day) of the same substance?
A: 70%

Q: And the Survival rate ([4]; intake 10.0 mg/day)?
A: 70%

Q: And the “Cumulative score of symptoms with respect to saline-administered control group defined as 100%” value (EAE rats; [5])?
A: 18%

Q: And the Frequency of onset (EAE rats; [5])?
A: 2/5

Q: And the “The average number of days required for onset” value (EAE rats; [5])?
A: 15.2

Q: And the “Cumulative score of symptoms” value (EAE rats; [5])?
A: 10

Q: What about the “Cumulative score of symptoms with respect to saline-administered control group defined as 100%” value (EAE rats; [6]) of the same substance?
A: 19%

Q: And the Frequency of onset (EAE rats; [6])?
A: 2/5

Q: What about the “The average number of days required for onset” value (EAE rats; [6]) of the same substance?
A: 14.5

Q: What about the “Cumulative score of symptoms” value (EAE rats; [6]) of the same substance?
A: 11

Q: What about the Incidence of diarrhea (enteropathogenic E. coli; intake 0.1 mg/day in feed, control 100) of the same substance?
A: 100%

Q: What about the Incidence of diarrhea (enteropathogenic E. coli; intake 1.0 mg/day in feed) of the same substance?
A: 40%

Q: What about the Incidence of diarrhea (enteropathogenic E. coli; intake 5.0 mg/day in feed) of the same substance?
A: 30%

Q: And the Incidence of diarrhea (enteropathogenic E. coli; intake 10.0 mg/day in feed)?
A: 10%
